Experimental findings from patent US20230416205A1, “COMPOUNDS, COMPOSITIONS, AND METHODS” (Denali Therapeutics Inc, priority 2020, published 2023) are described below.

One assay has as its system NLRP3. The experiment in a line: IL-1β secretion assay in PMA-differentiated, LPS/nigericin-stimulated THP-1 cells (384-well, ELISA read-out). The assay is classed as cell-based, human. As to conditions: Homo sapiens, THP-1. A digest of the protocol: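 Secreted IL-1β quantified by capture ELISA from supernatants of PMA-differentiated THP-1 cells (30K per well). Sequence: LPS 25 ng/mL priming 2 h, compound 1 h, nigericin 2 h; dose-responses normalized between high (LPS plus 5 μM nigericin) and low (LPS alone) controls.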
(In general: An ELISA detects its analyte on a solid surface through an enzyme-linked reagent.)
Turning to `O=C(CN1CC2(CC2)c2cc(Br)ccc2C1=O)NC1CN2CCC1CC2` (stereo not shown) [Example 372, N-(1-azabicyclo[2.2.2]octan-3-yl)-2-(6-bromo-1-oxospiro[3H-isoquinoline-4,1′-cyclopropane]-2-yl)acetamide], the IC50 (in general, the midpoint of a concentration-inhibition curve) amounted to 22.2 µM.

Still in this assay, the particulars now being: Homo sapiens, THP-1, Table 4; IL-1β secretion, LPS/nigericin-stimulated THP-1 cells; read-out: IC50.
For `N#Cc1cccc2oc(NC(=O)CN3CC4(CC4)c4cc(Br)ccc4C3=O)nc12` [Example 356, 2-(6-bromo-1-oxospiro[3H-isoquinoline-4,1′-cyclopropane]-2-yl)-N-(4-cyano-1,3-benzoxazol-2-yl)acetamide], the IC50 stood at 2.3 µM.

As to `O=C(CN1CC2(CC2)c2cc(Br)ccc2C1=O)NC1CC(OCc2ccccc2)C1` (stereo not drawn) [Example 357, 2-(6-bromo-1-oxospiro[3H-isoquinoline-4,1′-cyclopropane]-2-yl)-N-(3-trans-phenylmethoxycyclobutyl)acetamide], the IC50 worked out at 5.21 µM.

Take `O=C(CN1CC2(CC2)c2cc(Br)ccc2C1=O)Nc1nc2cc(C(F)(F)F)ccc2o1` [Example 358, 2-(6-bromo-1-oxospiro[3H-isoquinoline-4,1′-cyclopropane]-2-yl)-N-[5-(trifluoromethyl)-1,3-benzoxazol-2-yl]acetamide]: the IC50 turned out to be 1.29 µM.

Regarding `O=C(CN1CC2(CC2)c2cc(Br)ccc2C1=O)Nc1ncc(C2CCCO2)cn1` (stereo not shown) [Example 359, 2-(6-bromo-1-oxospiro[3H-isoquinoline-4,1′-cyclopropane]-2-yl)-N-[5-(oxolan-2-yl)pyrimidin-2-yl]acetamide], the IC50 was 0.603 µM.

As to `CN1CCC[C@@H](NC(=O)CN2CC3(CC3)c3cc(Br)ccc3C2=O)C1` [Example 360, 2-(6-bromo-1-oxospiro[3H-isoquinoline-4,1′-cyclopropane]-2-yl)-N-[(3R)-1-methylpiperidin-3-yl]acetamide], the IC50 is 3.46 µM.

Consider `O=C(CN1CC2(CC2)c2cc(Br)ccc2C1=O)Nc1nc2ccc(C(F)(F)F)cc2o1` [Example 361, 2-(6-bromo-1-oxospiro[3H-isoquinoline-4,1′-cyclopropane]-2-yl)-N-[6-(trifluoromethyl)-1,3-benzoxazol-2-yl]acetamide], for which the IC50 amounted to 0.849 µM.

As to `O=C(CN1CC2(CC2)c2cc(Br)ccc2C1=O)Nc1cc2n(n1)CCOC2` [Example 362, 2-(6-bromo-1-oxospiro[3H-isoquinoline-4,1′-cyclopropane]-2-yl)-N-(6,7-dihydro-4H-pyrazolo[5,1-c][1,4]oxazin-2-yl)acetamide], the IC50 came to 1.45 µM.

Regarding `O=C(CN1CC2(CC2)c2cc(Br)ccc2C1=O)Nc1nccc2nccn12` [Example 363, 2-(6-bromo-1-oxospiro[3H-isoquinoline-4,1′-cyclopropane]-2-yl)-N-imidazo[1,2-c]pyrimidin-5-ylacetamide], the IC50 came out at 6.58 µM.

Take `O=C(CN1CC2(CC2)c2cc(Br)ccc2C1=O)Nc1ncc(N2CCCC2)cn1` [Example 364, 2-(6-bromo-1-oxospiro[3H-isoquinoline-4,1′-cyclopropane]-2-yl)-N-(5-pyrrolidin-1-ylpyrimidin-2-yl)acetamide]: the IC50 came to 2.56 µM.

`O=C(CN1CC2(CC2)c2cc(Br)ccc2C1=O)N[C@@H]1CCCN(C2COC2)C1` [Example 365, 2-(6-bromo-1-oxospiro[3H-isoquinoline-4,1′-cyclopropane]-2-yl)-N-[(3R)-1-(oxetan-3-yl)piperidin-3-yl]acetamide]: the IC50 came to 2.14 µM.

As to `O=C(CN1CC2(CC2)c2cc(Br)ccc2C1=O)NC1CCN(CCC(F)(F)F)CC1` [Example 366, 2-(6-bromo-1-oxospiro[3H-isoquinoline-4,1′-cyclopropane]-2-yl)-N-[1-(3,3,3-trifluoropropyl)piperidin-4-yl]acetamide], the 50% inhibitory concentration (IC50) was 19 µM.

For `O=C(CN1CC2(CC2)c2cc(Br)ccc2C1=O)NC1CCN(CC(F)F)CC1` [Example 367, 2-(6-bromo-1-oxospiro[3H-isoquinoline-4,1′-cyclopropane]-2-yl)-N-[1-(2,2-difluoroethyl)piperidin-4-yl]acetamide], the IC50 was 11.7 µM.

On to `Cc1cc(NC(=O)CN2CC3(CC3)c3cc(Br)ccc3C2=O)nc2ccnn12` [Example 368, 2-(6-bromo-1-oxospiro[3H-isoquinoline-4,1′-cyclopropane]-2-yl)-N-(7-methylpyrazolo[1,5-a]pyrimidin-5-yl)acetamide], for which the IC50 stood at 1.6 µM.

Regarding `O=C(CN1CC2(CC2)c2cc(Br)ccc2C1=O)NC1CCN(c2cccnc2)CC1` [Example 369, 2-(6-bromo-1-oxospiro[3H-isoquinoline-4,1′-cyclopropane]-2-yl)-N-(1-pyridin-3-ylpiperidin-4-yl)acetamide], the IC50 was found to be 6.51 µM.

As to `CN1CCC(NC(=O)CN2CC3(CC3)c3cc(Br)ccc3C2=O)CC12CC2` (stereo not shown) [Example 370, 2-(6-bromo-1-oxospiro[3H-isoquinoline-4,1′-cyclopropane]-2-yl)-N-(4-methyl-4-azaspiro[2.5]octan-7-yl)acetamide], the IC50 turned out to be 5.97 µM.

With `Cn1cnc(NC(=O)CN2CC3(CC3)c3cc(Br)ccc3C2=O)n1` [Example 371, 2-(6-bromo-1-oxospiro[3H-isoquinoline-4,1′-cyclopropane]-2-yl)-N-(1-methyl-1,2,4-triazol-3-yl)acetamide], the concentration for half-maximal inhibition (IC50) is 1.46 µM.

Take `O=C(CN1CC2(CC2)c2cc(Br)ccc2C1=O)Nc1nc2n(n1)CCCC2` [Example 373, 2-(6-bromo-1-oxospiro[3H-isoquinoline-4,1′-cyclopropane]-2-yl)-N-(5,6,7,8-tetrahydro-[1,2,4]triazolo[1,5-a]pyridin-2-yl)acetamide]: the IC50 was determined as 1.59 µM.

For `O=C(CN1CC2(CC2)c2cc(Br)ccc2C1=O)Nc1ccn2ccnc2n1` [Example 374, 2-(6-bromo-1-oxospiro[3H-isoquinoline-4,1′-cyclopropane]-2-yl)-N-imidazo[1,2-a]pyrimidin-7-ylacetamide], the 50% inhibitory concentration (IC50) amounted to 9.45 µM.

Take `O=C(CN1CC2(CC2)c2cc(Br)ccc2C1=O)NC1CCN(CC(F)(F)F)CC1` [Example 375, 2-(6-bromo-1-oxospiro[3H-isoquinoline-4,1′-cyclopropane]-2-yl)-N-[1-(2,2,2-trifluoroethyl)piperidin-4-yl]acetamide]: the IC50 came out at 11.1 µM.

As to `Cc1nc(NC(=O)CN2CC3(CC3)c3cc(Br)ccc3C2=O)nn1C` [Example 376, 2-(6-bromo-1-oxospiro[3H-isoquinoline-4,1′-cyclopropane]-2-yl)-N-(1,5-dimethyl-1,2,4-triazol-3-yl)acetamide], the IC50 stood at 1.83 µM.

In the case of `O=C(CN1CC2(CC2)c2cc(Br)ccc2C1=O)Nc1noc2ccccc12` [Example 377, N-(1,2-benzoxazol-3-yl)-2-(6-bromo-1-oxospiro[3H-isoquinoline-4,1′-cyclopropane]-2-yl)acetamide], the IC50 amounted to 2.25 µM.

`CCOC(=O)N1CCC(NC(=O)CN2CC3(CC3)c3cc(Br)ccc3C2=O)CC1` [Example 378, ethyl 4-[[2-(6-bromo-1-oxospiro[3H-isoquinoline-4,1′-cyclopropane]-2-yl)acetyl]amino]piperidine-1-carboxylate]: the half-maximal inhibitory concentration (IC50) is 4.98 µM.

Regarding `O=C(CN1CC2(CC2)c2cc(Br)ccc2C1=O)NC1CCN(c2ccccn2)CC1` [Example 379, 2-(6-bromo-1-oxospiro[3H-isoquinoline-4,1′-cyclopropane]-2-yl)-N-(1-pyridin-2-ylpiperidin-4-yl)acetamide], the concentration for half-maximal inhibition (IC50) was 8.92 µM.

Take `O=C(CN1CC2(CC2)c2cc(Br)ccc2C1=O)NC1CCN(c2ncccn2)CC1` [Example 380, 2-(6-bromo-1-oxospiro[3H-isoquinoline-4,1′-cyclopropane]-2-yl)-N-(1-pyrimidin-2-ylpiperidin-4-yl)acetamide]: the IC50 worked out at 11.4 µM.

Take `O=C(CN1CC2(CC2)c2cc(Br)ccc2C1=O)N[C@@H]1CCN(C2COC2)C1` [Example 381, 2-(6-bromo-1-oxospiro[3H-isoquinoline-4,1′-cyclopropane]-2-yl)-N-[(3R)-1-(oxetan-3-yl)pyrrolidin-3-yl]acetamide]: the concentration for half-maximal inhibition (IC50) is 12.1 µM.

With `COCC1CC(NC(=O)CN2CC3(CC3)c3cc(Br)ccc3C2=O)C1` (stereo not shown) [Example 382, 2-(6-bromo-1-oxospiro[3H-isoquinoline-4,1′-cyclopropane]-2-yl)-N-[3-(methoxymethyl)cyclobutyl]acetamide], the IC50 turned out to be 8.79 µM.

For the compound `O=C(CN1CC2(CC2)c2cc(Br)ccc2C1=O)Nc1cc2ccccn2n1` [Example 383], the 50% inhibitory concentration (IC50) amounted to 1.23 µM.

Take `CCN1CC[C@@H](NC(=O)CN2CC3(CC3)c3cc(Br)ccc3C2=O)C1` [Example 384, 2-(6-bromo-1-oxospiro[3H-isoquinoline-4,1′-cyclopropane]-2-yl)-N-[(3R)-1-ethylpyrrolidin-3-yl]acetamide]: the 50% inhibitory concentration (IC50) is 11.6 µM.

Turning to `O=C(CN1CC2(CC2)c2cc(Br)ccc2C1=O)Nc1cn2ccccc2n1` [Example 385], the IC50 came to 1.82 µM.

For `O=C(CN1CC2(CC2)c2cc(Br)ccc2C1=O)Nc1nc2c(o1)CCCC2` [Example 386, 2-(6-bromo-1-oxospiro[3H-isoquinoline-4,1′-cyclopropane]-2-yl)-N-(4,5,6,7-tetrahydro-1,3-benzoxazol-2-yl)acetamide], the IC50 stood at 1.45 µM.

With `O=C(CN1CC2(CC2)c2cc(Br)ccc2C1=O)NC1CCN(c2cccnn2)CC1` [Example 387, 2-(6-bromo-1-oxospiro[3H-isoquinoline-4,1′-cyclopropane]-2-yl)-N-(1-pyridazin-3-ylpiperidin-4-yl)acetamide], the IC50 came to 5.29 µM.

For `Cc1c(C#N)cnc(NC(=O)CN2CC3(CC3)c3cc(Br)ccc3C2=O)c1F` [Example 389, 2-(6-bromo-1-oxospiro[3H-isoquinoline-4,1′-cyclopropane]-2-yl)-N-(5-cyano-3-fluoro-4-methylpyridin-2-yl)acetamide], the half-inhibitory concentration (IC50) came to 0.546 µM.

Take `Cc1nc(NC(=O)CN2CC3(CC3)c3cc(Br)ccc3C2=O)c(F)cc1C#N` [Example 390, 2-(6-bromo-1-oxospiro[3H-isoquinoline-4,1′-cyclopropane]-2-yl)-N-(5-cyano-3-fluoro-6-methylpyridin-2-yl)acetamide]: the IC50 was found to be 9.84 µM.
